In PMC6015222, “Targeting Phosphopeptide Recognition by the Human BRCA1 Tandem BRCT Domain to Interrupt BRCA1-Dependent Signaling” (Cell Chemical Biology, 2018):

Experiments:
BRCA1 tBRCT = biological target: T1, BRCA1 tBRCT (Homo sapiens, UniProt P38398); assay: Competitive MST: inhibition of BACH1 phosphopeptide binding to BRCA1 tBRCT; conditions: MST, BACH1 phosphopeptide vs BRCA1 tBRCT; mean ± SD of three experiments; NB, no binding
T1 construct: BRCA1 tBRCT residues 1646-1859; made in house; host or cells: E. coli BL21(DE3)
Method: Protein domains used in the assay were labeled with NT-647-NHS fluorescent dye using the Monolith NT™ Protein Labeling Kit (NanoTemper Technologies). Assays were carried out in 20mM Tris buffer, pH 7.4, with 200mM NaCl, 0.05% Tween-20 and 2mM DTT. For the direct binding assay, 10μl of labeled protein at a final concentration of 20nM was mixed with 10μl of test compound and incubated on ice for 10 min. For the competitive assay, 10μl of labeled protein at a final concentration of 20nM was mixed with 2μM cognate peptide substrate at the EC80 concentration determined by prior titration using a 16-point serial dilution by direct-binding MST. For both assays, samples prepared as above were centrifuged at 15000 rpm at 4°C for 10 min and 4μl of the supernatant was loaded into premium glass capillaries (NanoTemper Technologies). MST analysis was performed at MST power of 40% and LED power of 80%, at 22°C temperature using a Monolith NT.115 (NanoTemper Technologies). An initial “Capillary Scan” was performed to scan for fluorescence across the length of the capillary tray to determine the exact position of each capillary before the MST measurement was started. Test compounds were assayed at 16 different concentrations by serial dilution, and data were analysed using NanoTemper analysis software. Kd values were determined using “T-jump + Thermophoresis” settings. The change in thermophoresis between different experimental conditions was expressed as the change in the normalized fluorescence (ΔFnorm), which is defined as Fhot/Fcold (F-values correspond to average fluorescence values between defined areas in the curve under steady-state conditions under control (Fcold) or experimental (Fhot) conditions. Titration of the non-fluorescent ligand causes a gradual change in thermophoresis, which is plotted as ΔFnorm to yield a binding curve, which was then fitted to derive binding constants.

MCPH1 tBRCT 2/3 = biological target: T2, MCPH1 tBRCT 2/3 (Homo sapiens, UniProt Q8NEM0); assay: Competitive MST selectivity: MCPH1 tBRCT; type: binding
T2 construct: MCPH1 tBRCT 2/3 residues 640-835; 6x His (N); made in house; host or cells: E. coli BL21(DE3)
T2 sequence (Q8NEM0 640-835): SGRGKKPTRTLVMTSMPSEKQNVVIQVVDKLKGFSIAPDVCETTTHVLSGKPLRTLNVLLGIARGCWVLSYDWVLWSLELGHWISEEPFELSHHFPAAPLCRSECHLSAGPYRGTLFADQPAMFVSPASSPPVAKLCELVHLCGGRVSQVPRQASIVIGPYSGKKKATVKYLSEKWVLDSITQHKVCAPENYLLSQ
Method: (§1) Protein domains used in the assay were labeled with NT-647-NHS fluorescent dye using the Monolith NT™ Protein Labeling Kit (NanoTemper Technologies). Assays were carried out in 20mM Tris buffer, pH 7.4, with 200mM NaCl, 0.05% Tween-20 and 2mM DTT. For the direct binding assay, 10μl of labeled protein at a final concentration of 20nM was mixed with 10μl of test compound and incubated on ice for 10 min. For the competitive assay, 10μl of labeled protein at a final concentration of 20nM was mixed with 2μM cognate peptide substrate at the EC80 concentration determined by prior titration using a 16-point serial dilution by direct-binding MST. For both assays, samples prepared as above were centrifuged at 15000 rpm at 4°C for 10 min and 4μl of the supernatant was loaded into premium glass capillaries (NanoTemper Technologies). MST analysis was performed at MST power of 40% and LED power of 80%, at 22°C temperature using a Monolith NT.115 (NanoTemper Technologies). An initial “Capillary Scan” was performed to scan for fluorescence across the length of the capillary tray to determine the exact position of each capillary before the MST measurement was started. Test compounds were assayed at 16 different concentrations by serial dilution, and data were analysed using NanoTemper analysis software. Kd values were determined using “T-jump + Thermophoresis” settings. […]

TOPBP1 tBRCT 7/8 = biological target: T3, TOPBP1 tBRCT 7/8 (Homo sapiens, UniProt Q92547); assay: Competitive MST selectivity: TOPBP1 7/8; type: binding
T3 construct: TOPBP1 tBRCT 7/8 residues 1264–1493; made in house; host or cells: E. coli BL21(DE3*)
Method: as §1

TOPBP1 BRCT 1/2 = biological target: T4, TOPBP1 BRCT 1/2 (Homo sapiens, UniProt Q92547); assay: Competitive MST selectivity: TOPBP1 1/2; type: binding
T4 construct: TOPBP1 BRCT 1/2 residues 1-290; 6x His (N); made in house; host or cells: E. coli BL21(DE3)
Method: as §1

MDC1 foci = assay: Radiation-induced nuclear MDC1 foci, HEK293 cells; type: cell-based, human; conditions: 100 μM added 6 hr after 16 Gy
Method: (§2) HEK293 cells stably harboring plasmids for Tet-inducible expression of tBRCT domains were seeded at 30,000 cells/well on Matrigel-coated 96-well plates, and treated as indicated. Cells were fixed in 2.5% PFA, for 20’ at RT and incubated in 1x PBS with 10% FBS plus 0.5% TritonX-100 for 1 h for blocking and permeabilization. Primary antibody staining was performed at the indicated dilutions in PBST-BSA buffer (0.7mg/ml BSA, 0.05% Tween-20 in 1XPBS) for 1h at RT. Cells were then extensively washed in PBST-BSA buffer and stained with goat-anti-mouse Alexa 488 secondary antibody (Invitrogen), at 1:1000 dilution along with 2.5μg/ml DAPI for nuclear staining. […] Images were acquired on a high-content imaging platform (Cellomics ArrayScan VTI HCS Reader (Thermo Fisher Scientific)) using a 40x objective. On average ∼800 fields from 6-well replicates, containing a total of ∼10-20K cells were imaged per treatment group and quantified using image analysis software (in-house algorithms using MatLab and commercially available HCS studio 2.0 from Thermo Fisher Scientific). […] Cut-off values for foci number per cell specifying the maximal difference between control and irradiated samples were determined to calculate the percentage of cells positive for radiation-induced foci. […]

HEK293 cells = assay: Cell viability after 1 Gy irradiation (calcein AM dye and cell counting); type: cell-based, human; conditions: 1–100 μM added 1 hr before 1 Gy, viability 7 days later
Method: HEK293 cells stably harboring plasmids for Tet-inducible expression of tBRCT domains were seeded at a density of 60,000 cells/35mm dish. Compound addition or inducible expression of BRCA1 tBRCT were performed as indicated, when cells were ∼30% confluent, before exposure to 1Gy irradiation. Cells were replenished with media every 3rd day for 7 days, re-suspended in cell dissociation buffer, which was neutralized in 1x PBS. Cells were mixed thoroughly to ensure single cell suspension before measurement of viability using Calcein AM dye and/or cell counting with a hemocytometer. Cell survival fractions were measured using fluorescence readout of Calcein AM with the Tecan Infinite M1000 Pro reader (485nm excitation and 515nm emission) and data were normalized to untreated controls across treatment groups.

RAD51 foci = assay: Radiation-induced nuclear RAD51 foci; type: cell-based, human; conditions: 100 μM, 16 Gy, as Figure 5A
Method: as §2

RPA32 foci = assay: Radiation-induced nuclear RPA32 foci; type: cell-based, human; conditions: 100 μM, 16 Gy, as Figure 5A
Method: as §2

cells = assay: Cellular effects of Bractoppin, summary over the cell assays; type: cell-based

## O=C(c1ccc2nc(-c3ccccc3)[nH]c2c1)N1CCN(Cc2ccccc2F)CC1 [Bractoppin, (4-(2-fluorobenzyl)piperazin-1-yl) (2-phenyl-1H-benzo[d]imidazol-6-yl) methanone]
BRCA1 tBRCT
  IC50: 74 nM
MCPH1 tBRCT 2/3
  binding to fluorescently labeled MCPH1 tBRCT domain: does not detectably bind
TOPBP1 tBRCT 7/8
  binding to fluorescently labeled TOPBP1 7/8 tBRCT domain: does not detectably bind
TOPBP1 BRCT 1/2
  binding to fluorescently labeled TOPBP1 1/2 tBRCT domain: does not detectably bind
MDC1 foci
  effect on radiation-induced accumulation of MDC1 at sites of DNA damage: little effect
HEK293 cells
  effect on cytotoxicity induced by exposure to 1 Gy IR: significantly enhances cytotoxicity
RAD51 foci
  effect on IR-induced RAD51 foci: selectively suppresses
RPA32 foci
  effect on RPA32 accumulation: little effect
cells
  concentration at which cellular effects are elicited: 10 to 100 µM
